Here are results for three compounds from patent US10722437B2, “Cosmetic agents with “improved protection against body odor”” (Henkel AG & Co. KGaA, priority 2016, dated 2020).

Molecules are shown by their SMILES.

For this test, the system named is body odor. Description: Neutralization of body odor: specimen on left armpit vs anti-transpirant base suspension on right armpit, worn T-shirt rated by trained persons. The class given is in vivo, human. To be noted: statement in words on the body odor test; 0.3 wt. % in anti-transpirant base suspension. As to the method:
The following anti-transpirant base suspension was used to determine the synergistic effect with respect to the neutralization of body odor (values in wt. %):
Each of the following cyclical alcohols of the Formula (I) and/or menthyl compounds of the Formula (II) were added to said composition, wherein the total concentration of alcohol and/or menthyl compound in the suspension is 0.3 wt. % (all values in wt. %, relative to the used anti-transpirant suspension):
Said suspensions, each with a weight ratio of 15:85, were then placed in aerosol cans with a propellant mixture of propane and n-butane (weight ratio 15:85). Specimens No. 1 to 11 were each applied to the left armpit, the anti-transpirant base suspension to the right armpit. 24 hours after application, the body odor on the worn T-shirt on the left armpit (treated with specimens No. 1 to 11) were compared to the body odor of the right armpit (treated with anti-transpirant base suspension) by trained persons. The following rating scale was used: 0=no difference between specimen No. 1 to 11 and anti-transpirant base suspension; +=body odor reduced compared to anti-transpirant base suspension; ++=body odor no longer discernible on the T-shirt.
Take `CC(O)C1CCCCC1` (stereo not drawn) [1-cyclohexylethanol]: the deodorizing effect entry is given as “deodorizing effect”.
Take `CC(CO)CCCC1CCCCC1` (stereo not drawn) [2-methyl-5-cyclohexylpentanol]: the deodorizing effect result is “a deodorizing effect is achieved”.
For the compound `CC(=O)O[C@@H]1C[C@H](C)CC[C@H]1C(C)C` [menthylacetate], the deodorizing effect result is “deodorizing effect”.
